Results on 3 compounds are retold here after US4481194A, “Des-proline-des-glycine vasopressin antagonists” (SmithKline Beckman Corporation, priority 1984, dated 1984).

Numbered stars: 1 amine (or outer) side, 2 acyl side, 3 side chain; on linkers, the order of the positions; unused ones are H or OH. Bridge positions count the residues as written; N and C are the ends. Square brackets hold non-standard residues; d marks the D form. Peptide text beside a SMILES is read from it. X1 = O=C(CC1(S[*:2])CCCCC1)[*:1]; Abu = CC[C@H](N)C(=O)O

Assay [1] has as its target T1, vasopressin receptors [V2 -receptors] (Sus scrofa, UniProt P32307).
T1 construct: average KD value determined on 3 preparations of hog kidney membranes; from tissue; host or cells: hog kidney medullary membranes
The experiment in a line: 3H-vasopressin binding assay, hog kidney membranes. To be noted: In Vitro (Pig); competitive inhibition of 3H-vasopressin binding; read-out: BB.
Experimental: In the test procedure for binding assays, the amount of ^3 H-vasopressin bound in the absence and in the presence of an excess of vasopressin (7.5×10^-6 M) is measured in triplicate. These values represent total and non-specific binding, respectively.

Assay [2] concerns the target T2, vasopressin stimulated adenylate cyclase (Sus scrofa, UniProt P32307).
T2 construct: in the medullary tissue of hog or human kidneys; from tissue; host or cells: kidney medullary membranes (hog or human)
Kind of assay: Vasopressin stimulated adenylate cyclase activity in kidney medullary membrane. It counts as biochemical. To be noted: In Vitro (Pig); antagonism of vasopressin stimulated adenylate cyclase, medullary tissue.
Experimental: In the test procedure for assay of adenylate cyclase activity, the amount of ^32 P/cAMP formed in the absence of medullary membrane is determined (blank). The blank value is subtracted from all experimental data. The compound is tested for its effect on basal adenylate cyclase activity and/or on vasopressin stimulated activity. Each determination is carried out in triplicate. The Ka value is derived from a Lineweaver-Burkeplot. Rel. Vmax =(Vmax drug/Vmax vasopressin)×100. Ki =I/[Ka'/Ka)-1] where I is the concentration of the antagonist, and Ka' and Ka are the concentrations of vasopressin required to give half maximal activity of adenylate cyclase in the presence and absence of antagonist, respectively.

A further assay concerns hydropenic rat. The experiment in a line: Hydropenic rat screen (anti-ADH activity in vivo). To be noted: estimated dose of peptide delivered ip which reduces Uosm from hydropenic levels to 300 mOsmoles/kg H2O. Here is the method: Antagonistic activity toward the natural antidiuretic hormone (anti-ADH activity) is determined, in vitro, in the medullary tissue of hog or human kidneys and, in vivo, in the hydropenic rat. The in vitro assay procedures for vasopressin stimulated adenylate cyclase activation or vasopression binding activity are described by F. Stassen et al., J. Pharmacology and Experimental Therapeutics, 223, 50-54 (1982).
The assay for anti-ADH activity is the hydropenic rat protocol is described below:
Food and water are removed from male rats approximately 18 hours prior to testing. Animals are housed 4 per metabolism cage. At 0 hour, the test compound is administered intraperitoneally to the test group and an equivalent volume of vehicle is administered to both control groups (fasted and non-fasted). Urine volume and osmolality are measured every hour for 4 hours. Test values are recorded as ml of urine excreted (cumulative), mEq/rat electrolyte excreted, mg/rat urea excreted, and osmolality in milli-Osmoles/kg H2 O. A tolerance test is used to determine significance. ED300 is defined as the dose of compound (μg/kg) required to lower urine osmolality to 300 m-Osmoles/kg.

T2 sequence (P32307 whole entry): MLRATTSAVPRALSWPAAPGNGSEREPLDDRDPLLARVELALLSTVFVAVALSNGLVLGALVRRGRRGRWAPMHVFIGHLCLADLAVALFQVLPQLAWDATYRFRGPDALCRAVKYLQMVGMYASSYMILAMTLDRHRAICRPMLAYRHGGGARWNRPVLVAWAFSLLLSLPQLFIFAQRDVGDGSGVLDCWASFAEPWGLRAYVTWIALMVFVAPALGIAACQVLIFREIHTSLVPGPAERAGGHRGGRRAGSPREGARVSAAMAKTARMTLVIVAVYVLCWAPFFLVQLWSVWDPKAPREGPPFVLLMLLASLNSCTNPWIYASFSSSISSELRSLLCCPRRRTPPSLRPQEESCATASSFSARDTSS
T1 sequence (P32307 whole entry): as above

In the case of `CCOc1ccc(C[C@H]2NC(=O)CC3(CCCCC3)SSC[C@@H](C(=O)N[C@@H](CCCNC(=N)N)C(N)=O)NC(=O)[C@H](CC(N)=O)NC(=O)[C@H](C(C)C)NC(=O)[C@H](Cc3ccccc3)NC2=O)cc1` [A] ([dY](Et)FVNCR-NH2; linker N-5 via X1), the Ki in assay [1] came out at 9000 nM; in assay [2], 2.5 nM.

`CCOc1ccc(C[C@H]2NC(=O)CC3(CCCCC3)SSC[C@@H](C(=O)N[C@@H](CCCNC(=N)N)C(N)=O)NC(=O)[C@H](CC(N)=O)NC(=O)[C@H](CC)NC(=O)[C@H](Cc3ccccc3)NC2=O)cc1` [B, 1(mercapto-β,cyclopentamethylenepropionic acid)2-(O--ethylD-tyrosine)-4-aminobutyric acid7-desproline-8-arginine-9-desglycinevasopressin] ([dY](Et)F[Abu]NCR-NH2; linker N-5 via X1): in the assay with hydropenic rat, the ED300 is 0.1218 mg/kg. This compound gave a Ki in assay [2] of 6.2 nM.

In the case of `CCOc1ccc(C[C@H]2NC(=O)CC3(CCCCC3)SSC[C@@H](C(=O)N3CCC[C@H]3C(=O)N[C@@H](CCCNC(=N)N)C(=O)NCC(N)=O)NC(=O)[C@H](CC(N)=O)NC(=O)[C@H](C(C)C)NC(=O)[C@H](Cc3ccccc3)NC2=O)cc1` [C, [mercapto-β,cyclopentamethylenepropionic acid)2-(O--ethylD-tyrosine)-4-valine-8-argininevasopressin, reference compound] ([dY](Et)FVNCPRG-NH2; linker N-5 via X1 (inferred); C-terminus assumed), the ED300 with hydropenic rat is 0.011 mg/kg. Besides, in assay [2], the Ki was 9.8 nM.
